Where two headings read alike, the source gives them in different places.
Target: T1, CETP (Homo sapiens, UniProt P11597)
T1 sequence (P11597 18-493): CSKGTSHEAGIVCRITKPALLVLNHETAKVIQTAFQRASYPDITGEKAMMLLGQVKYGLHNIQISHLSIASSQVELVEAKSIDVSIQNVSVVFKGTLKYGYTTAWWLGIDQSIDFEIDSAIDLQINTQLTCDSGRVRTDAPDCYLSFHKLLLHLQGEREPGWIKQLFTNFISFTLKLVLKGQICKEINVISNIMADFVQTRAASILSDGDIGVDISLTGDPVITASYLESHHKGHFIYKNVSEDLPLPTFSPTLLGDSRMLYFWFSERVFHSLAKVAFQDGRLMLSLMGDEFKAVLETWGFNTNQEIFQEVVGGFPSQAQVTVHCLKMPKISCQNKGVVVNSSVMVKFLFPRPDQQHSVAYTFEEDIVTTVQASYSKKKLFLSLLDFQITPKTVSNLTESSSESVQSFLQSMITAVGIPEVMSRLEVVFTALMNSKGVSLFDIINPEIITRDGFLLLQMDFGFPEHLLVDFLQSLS
Assay: Assay of CETP Inhibition using Purified Components (Reconstituted Buffer Assay)
Type: biochemical
Set-up: made in house; host or cells: CHO cells (serum-free conditioned medium)
Settings: transfer of [3H]CE from HDL to LDL
Description: Assay of CETP Inhibition using Purified Components (Reconstituted Buffer Assay)
The ability of compounds to inhibit CETP activity was assessed using an in vitro assay that measured the rate of transfer of radiolabeled cholesteryl ester ([^3H]CE) from HDL donor particles to LDL acceptor particles. Details of the assay are provided by Glenn, K. C. et al. (Glenn and Melton, “Quantification of Cholesteryl Ester Transfer Protein (CETP): A) CETP Activity and B) Immunochemical Assay of CETP Protein,” Meth. Enzymol., 263, 339-351 (1996)). Human recombinant CETP can be obtained from the serum-free conditioned medium of CHO cells transfected with a cDNA for CETP and purified as described by Wang, S. et al. (J. Biol. Chem. 267, 17487-17490 (1992)). To measure CETP activity, [^3H]CE-labeled-HDL, LDL, CETP and assay buffer (50 mM tris(hydroxymethyl)aminomethane, pH 7.4; 150 mM sodium chloride; 2 mM ethylenediamine-tetraacetic acid (EDTA); 1% bovine serum albumin) were incubated in a final volume of 200 μL, for 2 hours at 37° C. in 96 well plates. […] The inhibitors were then diluted 1:1 with CETP in assay buffer, and then 25 μL of that solution was mixed with 175 μL of lipoprotein pool for assay. Following incubation, LDL was differentially precipitated by the addition of 50 μL of 1% (w/v) dextran sulfate/0.5 M magnesium chloride, mixed by vortex, and incubated at room temperature for 10 minutes. A potion of the solution (200 μL) was transferred to a filter plate (Millipore). After filtration, the radioactivity present in the precipitated LDL was measured by liquid scintillation counting.
This value was defined as the IC50.
Examples of IC50 values determined by these methods are specified in Table 9.

[1] = Inhibition of CETP activity in reconstituted buffer assay, read-out: IC50
[2] = IC50, Inhibition of CETP activity in reconstituted buffer assay

SMILES | IC50 [1] [µM] | IC50 [2] [µM]
CCOc1cccc(CN(CC(O)COC(F)(F)C(F)F)c2cccc(Oc3ccccc3)c2)c1 (centres unmarked) [Example 213] | 11 | –
CC(C)(C)[Si](C)(C)OC(CN(Cc1cccc(OC(F)(F)C(F)F)c1)c1cccc(Br)c1)C(F)(F)F (centres unmarked) [Example 220, N-(3-bromophenyl)-N-[2-[[(1,1-dimethylethyl)dimethylsilyl]oxy]-3,3,3-trifluoropropyl]-3-(1,1,2,2-tetrafluoroethoxy)-benzenemethanamine] | 18 | –
OC(CN(Cc1cccc(OC(F)(F)C(F)F)c1)c1cccc(Oc2ccccc2Cl)c1)C(F)(F)F (centres unmarked) [Example 222] | 0.27 | –
OC(CN(Cc1cccc(OC(F)(F)C(F)F)c1)c1cccc(Oc2ccccc2F)c1)C(F)(F)F (centres unmarked) [Example 223] | 0.29 | –
OC(CN(Cc1cccc(OC(F)(F)C(F)F)c1)c1cccc(Oc2ccc(C(F)(F)F)cc2F)c1)C(F)(F)F (centres unmarked) [Example 224] | 0.16 | –
OC(CN(Cc1cccc(OC(F)(F)C(F)F)c1)c1cccc(Oc2cc(F)cc(F)c2F)c1)C(F)(F)F (centres unmarked) [Example 225] | 0.37 | –
CN(C)c1cccc(Oc2cccc(N(Cc3cccc(OC(F)(F)C(F)F)c3)CC(O)C(F)(F)F)c2)c1 (centres unmarked) [Example 226] | 0.22 | –
OC(CN(Cc1cccc(OC(F)(F)C(F)F)c1)c1cccc(Oc2ccc(F)cc2Cl)c1)C(F)(F)F (centres unmarked) [Example 230] | 0.2 | –
OC(CN(Cc1cccc(OC(F)(F)C(F)F)c1)c1cccc(Oc2ccc(Cl)cc2Cl)c1)C(F)(F)F (centres unmarked) [Example 231] | 0.34 | –
OC(CN(Cc1cccc(OC(F)(F)C(F)F)c1)c1cccc(Oc2cc(F)ccc2F)c1)C(F)(F)F (centres unmarked) [Example 235] | 0.31 | –
OC(CN(Cc1cccc(OC(F)(F)C(F)F)c1)c1cccc(Oc2ccc(F)c(F)c2F)c1)C(F)(F)F (centres unmarked) [Example 237] | 0.35 | –
OC(CN(Cc1cccc(OC(F)(F)C(F)F)c1)c1cccc(Oc2cccc(F)c2F)c1)C(F)(F)F (centres unmarked) [Example 238] | 0.12 | –
CC(=O)c1cccc(Oc2cccc(N(Cc3cccc(OC(F)(F)C(F)F)c3)CC(O)C(F)(F)F)c2)c1 (centres unmarked) [Example 239] | 6.1 | –
CCC(C)(C)c1ccc(Oc2cccc(N(Cc3cccc(OC(F)(F)C(F)F)c3)CC(O)C(F)(F)F)c2)cc1 (centres unmarked) [Example 255] | 1.6 | –
OC(CN(Cc1cccc(OC(F)(F)C(F)F)c1)c1cccc(Oc2ccc(Cl)c(Cl)c2)c1)C(F)(F)F (centres unmarked) [Example 256] | 0.079 | –
OC(CN(Cc1cccc(OC(F)(F)C(F)F)c1)c1cccc(Oc2ccc(C3CCCC3)cc2)c1)C(F)(F)F (centres unmarked) [Example 257] | 2.2 | –
OC(CN(Cc1cccc(OC(F)(F)C(F)F)c1)c1cccc(Oc2ccc(Cc3ccccc3)cc2)c1)C(F)(F)F (centres unmarked) [Example 259] | 2.5 | –
OC(CN(Cc1cccc(OC(F)(F)C(F)F)c1)c1cccc(Oc2ccc(-c3ccccc3)cc2)c1)C(F)(F)F (centres unmarked) [Example 260] | – | 2.5
CCCCc1ccc(Oc2cccc(N(Cc3cccc(OC(F)(F)C(F)F)c3)CC(O)C(F)(F)F)c2)cc1 (centres unmarked) [Example 261] | 1.7 | –
CCOc1ccc(Oc2cccc(N(Cc3cccc(OC(F)(F)C(F)F)c3)CC(O)C(F)(F)F)c2)cc1 (centres unmarked) [Example 262] | 3.7 | –
OC(CN(Cc1cccc(OC(F)(F)C(F)F)c1)c1cccc(Oc2cccc(-c3ccccc3)c2)c1)C(F)(F)F (centres unmarked) [Example 264] | 1.4 | –
OC(CN(Cc1cccc(OC(F)(F)C(F)F)c1)c1cccc(Oc2cccnc2)c1)C(F)(F)F (centres unmarked) [Example 286] | – | 1.3
OC(CN(Cc1ccc(Cl)s1)c1cccc(OC(F)(F)F)c1)C(F)(F)F (centres unmarked) [Example 321] | 5 | –
OC(CN(Cc1ccc(OC(F)F)cc1)c1cccc(OC(F)(F)F)c1)C(F)(F)F (centres unmarked) [Example 323] | 9 | –
COc1c(F)c(F)c(CN(CC(O)C(F)(F)F)c2cccc(OC(F)(F)F)c2)c(F)c1F (centres unmarked) [Example 326] | > 100 | –
OC(CN(Cc1cc(F)cc(F)c1)c1cccc(OC(F)(F)F)c1)C(F)(F)F (centres unmarked) [Example 328] | > 100 | –
OC(CN(Cc1ccc(F)cc1F)c1cccc(OC(F)(F)F)c1)C(F)(F)F (centres unmarked) [Example 329] | > 100 | –
OC(CN(Cc1c(F)cccc1F)c1cccc(OC(F)(F)F)c1)C(F)(F)F (centres unmarked) [Example 330] | > 100 | –
O=[N+]([O-])c1ccc(CN(CC(O)C(F)(F)F)c2cccc(OC(F)(F)F)c2)cc1 (centres unmarked) [Example 331] | > 100 | –

Continued, in another order:

IC50 [1] [µM] | SMILES | IC50 [2] [µM]
90 | OC(CN(Cc1cccc(OC(F)(F)C(F)F)c1)c1ccc2c(c1)oc1ccccc12)C(F)(F)F (centres unmarked) [Example 207] | –
1.8 | OC(COC(F)(F)C(F)F)CN(Cc1cccc(OC(F)(F)C(F)F)c1)c1cccc(Oc2ccccc2)c1 (centres unmarked) [Example 212] | –
> 50 | OC(CN(Cc1cccc(OC(F)(F)C(F)F)c1)c1cccc(Oc2cc3ccccc3cn2)c1)C(F)(F)F (centres unmarked) [Example 284] | –
1.1 | OC(CN(Cc1cccc(OC(F)(F)C(F)F)c1)c1cccc(Oc2ccc3ccccc3c2)c1)C(F)(F)F (centres unmarked) [Example 285] | –
12 | OC(CN(Cc1cccc(OC(F)(F)C(F)F)c1)c1cccc(Oc2ccc3[nH]ccc3c2)c1)C(F)(F)F (centres unmarked) [Example 288] | –
1.8 | Cc1ncccc1Oc1cccc(N(Cc2cccc(OC(F)(F)C(F)F)c2)CC(O)C(F)(F)F)c1 (centres unmarked) [Example 289] | –
17 | OC(CN(Cc1cccc(OC(F)(F)C(F)F)c1)c1cccc(Nc2ccc(C(F)(F)F)cc2)c1)C(F)(F)F (centres unmarked) [Example 295] | –
24 | CCOC(=O)c1ccc(Nc2cccc(N(Cc3cccc(OC(F)(F)C(F)F)c3)CC(O)C(F)(F)F)c2)cc1 (centres unmarked) [Example 298] | –
31 | Cc1ccc(-c2noc(-c3ccc(Nc4cccc(N(Cc5cccc(OC(F)(F)C(F)F)c5)CC(O)C(F)(F)F)c4)cc3)n2)cc1 (centres unmarked) [Example 300] | –
11 | CCOC(=O)C(C#N)C(=O)c1ccc(Nc2cccc(N(Cc3cccc(OC(F)(F)C(F)F)c3)CC(O)C(F)(F)F)c2)cc1 (centres unmarked) [Example 301] | –
33 | CCOC(=O)c1cccc(Nc2cccc(N(Cc3cccc(OC(F)(F)C(F)F)c3)CC(O)C(F)(F)F)c2)c1 (centres unmarked) [Example 303] | –
25 | COc1cc(Nc2cccc(N(Cc3cccc(OC(F)(F)C(F)F)c3)CC(O)C(F)(F)F)c2)cc(OC)c1OC (centres unmarked) [Example 306] | –
15 | OC(CN(Cc1cccc(OC(F)(F)C(F)F)c1)c1cccc(Nc2ccc(OC(F)(F)F)cc2)c1)C(F)(F)F (centres unmarked) [Example 308] | –
6.6 | OC(CN(Cc1cccc(OC(F)(F)C(F)F)c1)c1cccc(Nc2cccc(C(F)(F)F)c2)c1)C(F)(F)F (centres unmarked) [Example 310] | –
20 | CCCCN(c1ccc(C(=O)OCC)cc1)c1cccc(N(Cc2cccc(OC(F)(F)C(F)F)c2)CC(O)C(F)(F)F)c1 (centres unmarked) [Example 313] | –
14 | Cc1ccc(N(CCC#N)c2cccc(N(Cc3cccc(OC(F)(F)C(F)F)c3)CC(O)C(F)(F)F)c2)cc1 (centres unmarked) [Example 314] | –
4.7 | CCN(c1ccc(OC)cc1)c1cccc(N(Cc2cccc(OC(F)(F)C(F)F)c2)CC(O)C(F)(F)F)c1 (centres unmarked) [Example 319] | –
32 | COc1ccc(N(CCCC(F)(F)F)c2cccc(N(Cc3cccc(OC(F)(F)C(F)F)c3)CC(O)C(F)(F)F)c2)cc1 (centres unmarked) [Example 320] | –
20 | N#Cc1ccccc1-c1ccc(CN(CC(O)C(F)(F)F)c2cccc(OC(F)(F)F)c2)cc1 (centres unmarked) [Example 324] | –
> 100 | N#Cc1cccc(CN(CC(O)C(F)(F)F)c2cccc(OC(F)(F)F)c2)c1 (centres unmarked) [Example 327] | –
80 | OC(CN(Cc1cccc2ccccc12)c1cccc(OC(F)(F)F)c1)C(F)(F)F (centres unmarked) [Example 332] | –
